One experiment addresses human Gal-3 (hGal-3) (Homo sapiens (Human), UniProt P17931). The experiment is described as follows: Competitive binding assay: biotinylated hGal-3 to microplate-adsorbed asialofetuin (ASF). The following applies: Activity on hGal-3; binding to ASF-coated plates, 3 hours at 4° C.; mean values. As for the experimental part: Evaluation of Compound Inhibitory Activity (IC50)
The inhibitory activity of compounds is determined in competitive binding assays. This spectrophotometric assay measures the binding of biotinylated human Gal-3 (hGal-3) or human Gal-1 (hGal-1), respectively, to a microplate-adsorbed glycoprotein, asialofetuin (ASF) (Proc Natl Acad Sci USA. 2013 Mar. 26; 110(13):5052-7.). Alternatively, and preferably, a human Gal-1 version in which all six cysteines are substituted by serines may be used.
Briefly, compounds are serially diluted in DMSO (working dilutions). ASF-coated 384 well plates are supplemented with 22.8 μL/well of biotinylated hGal-3 or hGal-1 in assay buffer (i.e. 300-1000 ng/mL biotinylated hGal-3 or hGal-1) to which 1.2 µL of compound working dilutions are added and mixed.
Plates are incubated for 3 hours at 4° C., then washed with cold assay buffer (3×50 uL), incubated for 1 hour with 25 μL/well of a streptavidin-peroxidase solution (diluted in assay buffer to 80 ng/mL) at 4° C., followed by further washing steps with assay buffer (3×50 uL). Finally, 25 µL/well of ABTS substrate is added.
The calculated IC50 values may fluctuate depending on the daily assay performance. Fluctuations of this kind are known to those skilled in the art. IC50 values from several measurements are given as mean values.

The next experiment addresses human Gal-1 (hGal-1) (Homo sapiens, UniProt P09382). Nature of the experiment: Competitive binding assay: biotinylated hGal-1 to microplate-adsorbed asialofetuin (ASF). As for the experimental part:
Evaluation of Compound Inhibitory Activity (IC50) The inhibitory activity of compounds is determined in competitive binding assays. […] Alternatively, and preferably, a human Gal-1 version in which all six cysteines are substituted by serines may be used. Briefly, compounds are serially diluted in DMSO (working dilutions). […] Plates are incubated for 3 hours at 4° C., then washed with cold assay buffer (3×50 uL), incubated for 1 hour with 25 μL/well of a streptavidin-peroxidase solution (diluted in assay buffer to 80 ng/mL) at 4° C., followed by further washing steps with assay buffer (3×50 uL). Finally, 25 µL/well of ABTS substrate is added. […] The calculated IC50 values may fluctuate depending on the daily assay performance. Fluctuations of this kind are known to those skilled in the art. IC50 values from several measurements are given as mean values.

Setting [1] is: Activities on hGal-1; binding to ASF-coated plates, 3 hours at 4° C.; mean values; read-out: Gal-1 IC50.

The term IC50 denotes the midpoint of a concentration-inhibition curve.

Like-named read-outs stand apart in the source and are kept apart here.

human Gal-1 (hGal-1), sequence (P09382 2-135 limits assumed): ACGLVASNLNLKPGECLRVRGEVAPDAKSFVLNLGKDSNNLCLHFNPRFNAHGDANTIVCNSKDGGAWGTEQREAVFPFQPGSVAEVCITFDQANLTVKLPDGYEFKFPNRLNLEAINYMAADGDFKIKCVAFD
human Gal-3 (hGal-3), sequence (P17931 whole entry): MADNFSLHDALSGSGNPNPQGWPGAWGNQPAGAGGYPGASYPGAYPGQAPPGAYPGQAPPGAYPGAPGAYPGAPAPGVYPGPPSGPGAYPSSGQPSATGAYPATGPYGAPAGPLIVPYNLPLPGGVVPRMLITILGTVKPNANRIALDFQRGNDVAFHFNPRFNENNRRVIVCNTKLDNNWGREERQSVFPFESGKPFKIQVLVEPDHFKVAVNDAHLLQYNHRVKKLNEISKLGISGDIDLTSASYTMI

As for `CO[C@@H]1[C@@H](n2cc(-c3ccc(C)c(F)c3F)nn2)[C@@H](O)[C@@H](CO)O[C@@H]1CC1=NOC2(CCCN(C(=O)OC(C)(C)C)CC2)C1` (mixture of isomers) [Example 1.75, tert-butyl (RS)-3-(((2R,3R,4S,5R,6R)-4-(4-(2,3-difluoro-4-methylphenyl)-1H-1,2,3-triazol-1-yl)-5-hydroxy-6-(hydroxymethyl)-3-methoxytetrahydro-2H-pyran-2-yl)methyl)-1-oxa-2,8-diazaspiro[4.6]undec-2-ene-8-carboxylate], the figures for the IC50 on human Gal-3 (hGal-3) and on human Gal-1 (hGal-1) (setting [1]) were 160 nM and 8200 nM, respectively.
Regarding `CO[C@@H]1[C@@H](n2cc(-c3ccc(C)c(F)c3F)nn2)[C@@H](O)[C@@H](CO)O[C@@H]1CC1=NOC2(CCC(=O)N(C)CC2)C1` (mixture of isomers) [Example 1.77, (RS)-3-(((2R,3R,4S,5R,6R)-4-(4-(2,3-difluoro-4-methylphenyl)-1H-1,2,3-triazol-1-yl)-5-hydroxy-6-(hydroxymethyl)-3-methoxytetrahydro-2H-pyran-2-yl)methyl)-8-methyl-1-oxa-2,8-diazaspiro[4.6]undec-2-en-9-one], the 50% inhibitory concentration (IC50) at human Gal-3 (hGal-3) came out at 100 nM; at human Gal-1 (hGal-1) (setting [1]), 4800 nM.
For the compound `CO[C@@H]1[C@@H](n2cc(-c3ccc(Cl)c(F)c3F)nn2)[C@@H](O)[C@@H](CO)O[C@@H]1CC1=NOC2(C1)C[C@@H](C(=O)O)N(C(=O)OC(C)(C)C)C2` (mixture of isomers) [Example 1.78, (5RS,8S)-7-(tert-butoxycarbonyl)-3-(((2R,3R,4S,5R,6R)-4-(4-(4-chloro-2,3-difluorophenyl)-1H-1,2,3-triazol-1-yl)-5-hydroxy-6-(hydroxymethyl)-3-methoxytetrahydro-2H-pyran-2-yl)methyl)-1-oxa-2,7-diazaspiro[4.4]non-2-ene-8-carboxylic acid], the IC50 came to 270 nM on human Gal-3 (hGal-3) and 12000 nM on human Gal-1 (hGal-1) (setting [1]).
In the same order, the values of `CO[C@@H]1[C@@H](n2cc(-c3ccc(Cl)c(F)c3F)nn2)[C@@H](O)[C@@H](CO)O[C@@H]1CC1=NOC2(CCN(C(=O)OC(C)(C)C)C2)C1` (mixture of isomers) [Example 1.79, tert-butyl (RS)-3-(((2R,3R,4S,5R,6R)-4-(4-(4-chloro-2,3-difluorophenyl)-1H-1,2,3-triazol-1-yl)-5-hydroxy-6-(hydroxymethyl)-3-methoxytetrahydro-2H-pyran-2-yl)methyl)-1-oxa-2,7-diazaspiro[4.4]non-2-ene-7-carboxylate] are 490 nM and 4800 nM.
In the same order, the values of `CO[C@@H]1[C@@H](n2cc(-c3ccc(C)c(F)c3F)nn2)[C@@H](O)[C@@H](CO)O[C@@H]1CC1=NOC2(CCNC(=O)CC2)C1` (mixture of isomers) [Example 1.76] are 110 nM and 2700 nM.
In the case of `CC(=O)O[C@@H]1[C@@H](n2cc(-c3ccc(C)c(F)c3F)nn2)[C@@H](O)[C@@H](CO)O[C@@H]1CC1=NOC2(CCOCC2)C1` [Example 1.01, (2R,3R,4S,5R,6R)-2-((1,8-dioxa-2-azaspiro[4.5]dec-2-en-3-yl)methyl)-4-(4-(2,3-difluoro-4-methylphenyl)-1H-1,2,3-triazol-1-yl)-5-hydroxy-6-(hydroxymethyl)tetrahydro-2H-pyran-3-yl acetate], the half-maximal inhibitory concentration (IC50) on human Gal-3 (hGal-3) stood at 61 nM; on human Gal-1 (hGal-1) (setting [1]) it was 4200 nM.
In the same order, the values of `Cc1ccc(-c2cn([C@H]3[C@@H](O)[C@@H](CO)O[C@H](CC4=NOC5(CCOCC5)C4)[C@@H]3O)nn2)c(F)c1F` [Example 1.02, (2R,3R,4R,5R,6R)-2-((1,8-dioxa-2-azaspiro[4.5]dec-2-en-3-yl)methyl)-4-(4-(2,3-difluoro-4-methylphenyl)-1H-1,2,3-triazol-1-yl)-6-(hydroxymethyl)tetrahydro-2H-pyran-3,5-diol] are 84 nM and 5200 nM.
On to `CC(=O)O[C@@H]1[C@@H](n2cc(-c3ccc(C)c(F)c3F)nn2)[C@@H](O)[C@@H](CO)O[C@@H]1CC1=NOC2(CCC(F)(F)CC2)C1` [Example 1.03, (2R,3R,4S,5R,6R)-2-((8,8-difluoro-1-oxa-2-azaspiro[4.5]dec-2-en-3-yl)methyl)-4-(4-(2,3-difluoro-4-methylphenyl)-1H-1,2,3-triazol-1-yl)-5-hydroxy-6-(hydroxymethyl)tetrahydro-2H-pyran-3-yl acetate], for which the half-inhibitory concentration (IC50) was 79 nM at human Gal-3 (hGal-3) and more than 100000 nM on human Gal-1 (hGal-1) (setting [1]).
Consider `Cc1ccc(-c2cn([C@H]3[C@@H](O)[C@@H](CO)O[C@H](CC4=NOC5(CCC(F)(F)CC5)C4)[C@@H]3O)nn2)c(F)c1F` [Example 1.04, (2R,3R,4R,5R,6R)-2-((8,8-difluoro-1-oxa-2-azaspiro[4.5]dec-2-en-3-yl)methyl)-4-(4-(2,3-difluoro-4-methylphenyl)-1H-1,2,3-triazol-1-yl)-6-(hydroxymethyl)tetrahydro-2H-pyran-3,5-diol], for which the half-maximal inhibitory concentration (IC50) turned out to be 170 nM on human Gal-3 (hGal-3) and 10400 nM on human Gal-1 (hGal-1) (setting [1]).
As to `OC[C@H]1O[C@H](CC2=NOC3(CCCCC3)C2)[C@H](O)[C@@H](n2cc(-c3cc(F)c(F)c(F)c3)nn2)[C@H]1O` [Example 1.05, (2R,3R,4R,5R,6R)-2-((1-oxa-2-azaspiro[4.5]dec-2-en-3-yl)methyl)-6-(hydroxymethyl)-4-(4-(3,4,5-trifluorophenyl)-1H-1,2,3-triazol-1-yl)tetrahydro-2H-pyran-3,5-diol], the IC50 was 280 nM at human Gal-3 (hGal-3) and 2200 nM at human Gal-1 (hGal-1) (read-out: Gal-1 IC50; Activities on hGal-1; binding to ASF-coated plates, 3 hours at 4° C.; mean values).
In the case of `CO[C@@H]1[C@@H](n2cc(-c3cc(F)c(F)c(F)c3)nn2)[C@@H](O)[C@@H](CO)O[C@@H]1CC1=NOC2(CCN(C(=O)OC(C)(C)C)CC2)C1` [Example 1.06, tert-butyl 3-(((2R,3R,4S,5R,6R)-5-hydroxy-6-(hydroxymethyl)-3-methoxy-4-(4-(3,4,5-trifluorophenyl)-1H-1,2,3-triazol-1-yl)tetrahydro-2H-pyran-2-yl)methyl)-1-oxa-2,8-diazaspiro[4.5]dec-2-ene-8-carboxylate], the 50% inhibitory concentration (IC50) at human Gal-3 (hGal-3) came out at 340 nM; at human Gal-1 (hGal-1) (setting [1]), 4200 nM.
For `CO[C@@H]1[C@@H](n2cc(-c3cc(F)c(F)c(F)c3)nn2)[C@@H](O)[C@@H](CO)O[C@@H]1CC1=NOC2(CCNCC2)C1` [Example 1.07, (2R,3R,4S,5R,6R)-6-((1-oxa-2,8-diazaspiro[4.5]dec-2-en-3-yl)methyl)-2-(hydroxymethyl)-5-methoxy-4-(4-(3,4,5-trifluorophenyl)-1H-1,2,3-triazol-1-yl)tetrahydro-2H-pyran-3-ol], the IC50 on human Gal-3 (hGal-3) came to 320 nM; at human Gal-1 (hGal-1) (setting [1]) it was 5700 nM.
For `CO[C@@H]1[C@@H](n2cc(-c3cc(F)c(F)c(F)c3)nn2)[C@@H](O)[C@@H](CO)O[C@@H]1CC1=NOC2(CCCCC2)C1` [Example 1.08, (2R,3R,4S,5R,6R)-6-((1-oxa-2-azaspiro[4.5]dec-2-en-3-yl)methyl)-2-(hydroxymethyl)-5-methoxy-4-(4-(3,4,5-trifluorophenyl)-1H-1,2,3-triazol-1-yl)tetrahydro-2H-pyran-3-ol], the IC50 at human Gal-3 (hGal-3) was 240 nM; on human Gal-1 (hGal-1) (setting [1]), 1900 nM.
Regarding `CO[C@@H]1[C@@H](n2cc(-c3cc(F)c(F)c(F)c3)nn2)[C@@H](O)[C@@H](CO)O[C@@H]1CC1=NOC2(CCC(C)CC2)C1` (stereo partly drawn) [Example 1.30, (2R,3R,4S,5R,6R)-2-(hydroxymethyl)-5-methoxy-6-((8-methyl-1-oxa-2-azaspiro[4.5]dec-2-en-3-yl)methyl)-4-(4-(3,4,5-trifluorophenyl)-1H-1,2,3-triazol-1-yl)tetrahydro-2H-pyran-3-ol], the IC50 on human Gal-1 (hGal-1) (setting [1]) turned out to be 3100 nM.
As to `OC[C@H]1O[C@H](CC2=NOC3(CCCCC3)C2)[C@H](OCC(F)F)[C@@H](n2cc(-c3cc(F)c(F)c(F)c3)nn2)[C@H]1O` [Example 1.67, (2R,3R,4S,5R,6R)-6-((1-oxa-2-azaspiro[4.5]dec-2-en-3-yl)methyl)-5-(2,2-difluoroethoxy)-2-(hydroxymethyl)-4-(4-(3,4,5-trifluorophenyl)-1H-1,2,3-triazol-1-yl)tetrahydro-2H-pyran-3-ol], the IC50 at human Gal-1 (hGal-1) (setting [1]) was determined as 2900 nM.
Take `CO[C@@H]1[C@@H](n2cc(-c3ccc(C)c(F)c3F)nn2)[C@@H](O)[C@@H](CO)O[C@@H]1CN1CC2(CCCCC2)NC1=O` [Example 4.01, 3-(((2R,3R,4S,5R,6R)-4-(4-(2,3-difluoro-4-methylphenyl)-1H-1,2,3-triazol-1-yl)-5-hydroxy-6-(hydroxymethyl)-3-methoxytetrahydro-2H-pyran-2-yl)methyl)-1,3-diazaspiro[4.5]decan-2-one]: the half-maximal inhibitory concentration (IC50) on human Gal-1 (hGal-1) (setting [1]) was 1300 nM.

The record behind these values is patent publication US20230295182A1, “SPIRO DERIVATIVES OF ALPHA-D-GALACTOPYRANOSIDES” (Idorsia Pharmaceuticals Ltd, priority 2020, published 2023).
